According to patent US20230257315A1, “AGRICULTURE COMPOSITIONS AND AP[…] MINERAL COMPOUNDS” (Ralco Nutrition, Inc., priority 2012, published 2023):

Key:
corn [1] = conditions: 5 g elemental cobalt per acre in-furrow
From the text: Various cobalt compounds were applied in-furrow to natural soil with corn seeded, then grown in greenhouse conditions. The cobalt compounds were applied at a rate of 5 g elemental cobalt per acre and compared to an untreated control. The compounds included: cobalt acetate, cobalt carbonate, cobalt gluconate and cobalt sulfate. The trial consisted of four replicates in a randomized complete block design. The plants were harvested after 53 days of growth and measured for plant health characteristics and nutrient uptake.

corn [2] = test: Greenhouse study of absorptivity of cobalt lactate into corn vegetative tissue with and without glyphosate; assay type: in vivo; conditions: foliar spray at V4-V6, day 6
Method: A greenhouse study was completed to evaluate the absorptivity of cobalt lactate into corn vegetative tissue when applied with and without glyphosate herbicide. The corn seeds were potted in natural soil and allowed to grow to the V4-V6 growth stage. At this time the plants were treated with foliar sprays of cobalt lactate, and cobalt lactate with glyphosate and ammonium sulfate (AMS). The glyphosate was commercially available and used at the recommended use rate of 1 qt per acre. The AMS was applied as described in Example 6. Six replicate vegetative portions of the plants were sampled at days 1 and 6 after the application and analyzed for cobalt content.
The initial absorption rate was slowed with the addition of glyphosate and AMS to the cobalt lactate solution.

field corn = test: Cobalt lactate in-furrow with field corn, greenhouse, nutrient uptake; assay type: in vivo; conditions: 5 g cobalt per acre in-furrow, 53 days of growth
[3] = 53 days of growth, vs untreated control

Q: With `CC(=O)[O-].CC(=O)[O-].[Co+2]` [cobalt acetate] as the molecule, how does the “increase in the vegetative N content” value (corn [1]; [3]) read?
A: 1.7%

Q: And the “increase in vegetative K concentration” value (corn [1]; [3])?
A: 9.3%

Q: What about the “tissue concentration increase Fe” value (corn [1]; vegetative tissue, 53 days) of the same molecule?
A: 20.9%

Q: What about the “tissue concentration increase Mn” value (corn [1]; vegetative tissue, 53 days) of the same molecule?
A: 37.5%

Q: And the “tissue concentration increase Zn” value (corn [1]; vegetative tissue, 53 days)?
A: 9.4%

Q: Which results are given for `O=C([O-])[O-].[Co+2]` [cobalt carbonate]?
A: increase in root mass (corn [1]; [3]): 6.7%; vegetative wet weight (corn [1]; [3]): slight increase

Q: cobalt gluconate was tested. Which “increase in vegetative K concentration” value (corn [1]; [3]) did it give?
A: 2.3%

Q: Which “cobalt concentration in vegetative tissue after 6 days” value (corn [2]) does the source give for cobalt lactate here?
A: consistent between the two treatments

Q: And the “increase of nitrogen within the vegetation over the untreated control” value (field corn)?
A: 4.6%

Q: And the “increase of potassium within the vegetation over the untreated control” value (field corn)?
A: 7.8%

Q: And the “nitrogen concentration increase within the root over the untreated control” value (field corn)?
A: 2.2%

Q: What about the “phosphorus concentration increase within the root over the untreated control” value (field corn) of the same molecule?
A: 4.2%

Q: And the “phosphorus content within the vegetation versus untreated control” value (field corn)?
A: no difference

Q: And the “potassium concentration increase within the root over the untreated control” value (field corn)?
A: 12.2%
